Data published in patent publication US20220264923A1, “Taste Modifying Product” (Firmenich SA, priority 2011, published 2022).

Assay: Umami effect of pure amide in pure water, panel versus MSG
Type: in vivo
Details: amide at 20ppm in mineral water vs 0.05% MSG; RUI=(umami intensity of the amide)/(umami intensity of MSG)*10; average of 5-10 trained panelists
Method: The amides were evaluated at 20ppm in mineral water in comparison with 0.05% monosodium glutamate (MSG). […] The Relative umami intensity (RUI) was calculated as follows: […] The following table gives the average of the notes obtained from all panelists.

## COc1ccc(/C=C/C(=O)NCCc2ccc(C(C)C)cc2)cc1OC [Amide 12, (E)-3-(3,4-dimethoxyphenyl)-N-(4-isopropylphenethyl)acrylamide]
  Relative umami intensity (RUI): 5.9

## CCc1ccc(CCNC(=O)/C=C/c2ccc(OC)c(OC)c2)cc1 [Amide 10, (E)-3-(3,4-dimethoxyphenyl)-N-(4-ethylphenethyl)acrylamide]
  Relative umami intensity (RUI): 11.5

## COc1ccc(/C=C/C(=O)NCCc2ccc(OC)c(OC)c2)cc1OC [Amide 3]
  Relative umami intensity (RUI): 3.3

## CCOc1cccc(CCNC(=O)/C=C/c2ccc(OC)c(OC)c2)c1 [Amide 7, (E)-3-(3,4-dimethoxyphenyl)-N-(3-ethoxyphenethyl)acrylamide]
  Relative umami intensity (RUI): 9.8

## COc1ccc(/C=C/C(=O)NCCc2ccc(C)c(C)c2)cc1OC [Amide 11, (E)-3-(3,4-dimethoxyphenyl)-N-(3,4-dimethylphenethyl)acrylamide]
  Relative umami intensity (RUI): 13.3

## COc1ccc(/C=C/C(=O)NCCc2ccccc2)cc1OC [Amide 2]
  Relative umami intensity (RUI): 3.8

## COc1ccccc1CCNC(=O)/C=C/c1ccc(OC)c(OC)c1 [Amide 5]
  Relative umami intensity (RUI): 3.2

## COc1cccc(CCNC(=O)/C=C/c2ccc(OC)c(OC)c2)c1 [Amide 4, (E)-3-(3,4-dimethoxyphenyl)-N-(3-methoxyphenethyl)acrylamide]
  Relative umami intensity (RUI): 10.2

## CCCOc1cccc(CCNC(=O)/C=C/c2ccc(OC)c(OC)c2)c1 [Amide 8, (E)-3-(3,4-dimethoxyphenyl)-N-(3-propoxyphenethyl)acrylamide]
  Relative umami intensity (RUI): 9.9

## COc1ccc(/C=C/C(=O)NCCc2ccc(OC)c(OC)c2)cc1 [Amide 14]
  Relative umami intensity (RUI): 3.8

## COc1cc(CCNC(=O)/C=C/c2ccc(OC)c(OC)c2)cc(OC)c1 [Amide 6]
  Relative umami intensity (RUI): 3.7

## COc1ccc(/C=C/C(=O)NCCc2cccc(C)c2)cc1OC [Amide 17, (E)-3-(3,4-dimethoxyphenyl)-N-(3-methylphenethyl)acrylamide]
  Relative umami intensity (RUI): 12.1

## COc1ccc(/C=C/C(=O)NCCc2ccc(OC(C)C)cc2)cc1OC [Amide 9, (E)-3-(3,4-dimethoxyphenyl)-N-(4-isopropoxy-phenethyl)acrylamide]
  Relative umami intensity (RUI): 6.5

## COc1ccc(CCNC(=O)/C=C/c2ccc(OC)c(OC)c2)cc1 [Amide 1, (E)-3-(3,4-dimethoxyphenyl)-N-(4-methoxyphenethyl)acrylamide]
  Relative umami intensity (RUI): 5.6
